According to patent US9314525B2 (Axelar AB, priority 2010, dated 2016):
Values after ≈ are worked out from the molar mass of the structure shown.

Experiments:
[1] = Solubility in 1% SDS in water by LC-UV; type: physicochemical; details: after 24 hours rotation, ambient temperature
Procedure: The solubility was determined in triplicate by use of LC-UV chromatography. […] The substance was rotated in the specific medium at ambient temperature for 24 hours, followed by filtering the supernatant using a hydrophilic PVDF (Millipore Corp.) 0.22 μm filter. The samples were then diluted with a 1:1 mixture of mobile phase A and B (see below) and analyzed using an Xterra™ MS C18, 50×2.1 mm column with UV detection at 288 nm. The mobile phase consisted of acetonitrile, water and trifluoroacetic acid, 5:95:0.1 (A) and 99:1:0.1 (B).
Solubility determinations were performed in 1% sodium dodecyl sulfate (SDS) in water.

[2] = target: insulin-like growth factor-1 receptor (IGF-1R) (Homo sapiens, UniProt P08069); details: disclosed in WO 02/102804; cited from earlier work
[3] = Thermogravimetric analysis (TGA); type: physicochemical; details: initial analysis
Procedure: (§1) Thermogravimetric analysis (TGA) was performed on a Seiko TG/DTA 6200 and open 90 μl Pt-pans with ca 10 to 25 mg of sample and a nitrogen flow of 200 ml/min. The temperature program was ambient (20° C.) to 400° C. with a heating rate of 10° C./min. A blank was subtracted and the TG data was normalized with respect to sample size and analyzed using the Muse Standard Analysis software, version 6.1 U (Seiko, Japan).

[4] = Slurry experiments with mixture of polymorphs B and C in saturated picropodophyllin solutions; type: physicochemical
Procedure: The solid was filtered off and the saturated picropodophyllin solutions were used in the slurry experiment below.
The solid was filtered off using a glass filter and stored at ambient conditions for 2 hours.
The solid was filtered off using a glass filter and left on the glass filter for 30 minutes.
The slurry was slowly stirred overnight. The slurry was removed from the oil bath and immediately filtered through a glass filter. The solid was left on the glass filter for 30 minutes.
The slurry was slowly stirred for 4 hours. The slurry was removed from the oil bath and immediately filtered through a glass filter. The solid was left on the glass filter for 30 minutes.

[5] = Powder dissolution profiling (intrinsic dissolution rate and apparent solubility) in PhB 6.5 and FeSSIF pH 6.5
Procedure: Phosphate buffer pH 6.5 (PhB 6.5) was prepared according to a protocol by Galia and co-workers (Galia, E., et al. Evaluation of various dissolution media for predicting in vivo performance of class I and II drugs. Pharm Res 15, pp. 698-705 (1998)). Briefly, 1000 mL of […] Na2HPO4 buffer pH 6.5 was prepared by dissolving 3.95 g Na2HPO4xH2O, 6.19 g NaCl and 0.42 g NaOH in a volumetric flask by adding purified water. The pH was adjusted to pH to 6.5 by titration with 0.5 M NaOH and the volume was adjusted to 1000 mL with purified water. This buffer was sterile filtered and thereafter stored in refrigerator. Fed state simulated intestinal fluid (FeSSIF pH 6.5) was prepared fresh on the day of the experiment by dissolving 1.12 g of Na-taurocholate/lecithin powder (ePhares, Switzerland) in 100 mL PhB ((Galia, E., et al. Evaluation of various dissolution media for predicting in vivo performance of class I and II drugs. Pharm Res 15, pp. 698-705 (1998)). The media was stirred and preheated to 37±1° C. resulting in clear solution of pH 6.5 which contained a mixed micelle system of 15 mM taurocholate and 3.75 mM lecithin.
Dissolution rate and apparent solubility was measured with the pDISS Profiler™ (pION INC, MA, USA) from 0.3-1.3 mg compound weighed into the vial to which the preheated (37° C.) dissolution medium was added. […] Each UV probe was calibrated with its own standard curve prior to the experiment. The obtained results were analysed with the software accompanying the pDISS equipment.
The detailed procedure of the powder dissolution experiments, including the theoretical background, can be found in Avdeef, A., Tsinman, K., Tsinman, O., Sun, N. & Voloboy, D. Miniaturization of powder dissolution measurement and estimation of particle size. Chem Biodivers 6, 1796-1811 (2009); in Fagerberg, J. H., et al. Dissolution Rate and Apparent Solubility of Poorly Soluble Drugs in Biorelevant Dissolution Media. Mol Pharm 7, 1419-1430, (2010); and in Tsinman, K., Avdeef, A., Tsinman, O. & Voloboy, D. Powder dissolution method for estimating rotating disk intrinsic dissolution rates of low solubility drugs. Pharm Res 26, 2093-2100 (2009).

[6] = Three month solid state stability study (appearance, XRPD, TGA); type: physicochemical; details: for TGA mass loss from ambient temperature to 150° C.: after 3 months storage at 40° C./75% RH; for Change in appearance: open containers
Procedure: Analysis was made by using X-Ray Powder Diffration (XRPD) and Thermogravimetry (TGA).
Experiments were run as described above using Cu Kα1 radiation (45 kV and 40 mA) at ambient temperature and humidity. Scans were run in continous scan mode in the range 2-50° 2θ using automatic divergence and antiscatter slits with observed length of 10 mm, a step size of 0.013° 2θ and a common counting time of 97.920 seconds.
as §1, with “Thermogravimetry” for “Thermogravimetric analysis”, “20” for “25”, “mL/min.” for “ml/min.”, “U.” for “U (Seiko, Japan).”

[7] = Physical stability of polymorphs stirred in water, sonicated or mortared (XRPD); type: physicochemical; details: for Solid form by XRPD after stirring in water: slurry in water rotated for 24 hours
Procedure: The slurry was centrifuged and the supernatant was removed. The solid was dried under vacuum overnight and the sample was thereafter, stored at ambient conditions.
The slurry was centrifuged 3000 rpm for 10 minutes and the supernatant was removed. The solid was freezed (in a freezer) and freeze-dried overnight. The sample was kept at ambient conditions for 2 hours before the XRPD analysis.

[8] = Dynamic Vapour Sorption (DVS) hygroscopicity; type: physicochemical; details: from 0 to 90% RH, 25° C.
Procedure: The hygroscopicity of the samples was studied by Dynamic Vapor Sorption Gravimetry (DVS) using a DVS-1 (Surface Measurement Ltd., UK).
Each sample was run in three consecutive full cycles. The condition to proceed to the next level of RH was a weight increase below or equal to 0.001% within 15 minutes, with a maximum total time per step of 24 hours. The temperature was kept at 25° C.

[9] = listed as picropodophyllin polymorph B
[10] = listed as picropodophyllin polymorph C

insulin-like growth factor-1 receptor (IGF-1R), sequence (P08069 31-1367, species assumed): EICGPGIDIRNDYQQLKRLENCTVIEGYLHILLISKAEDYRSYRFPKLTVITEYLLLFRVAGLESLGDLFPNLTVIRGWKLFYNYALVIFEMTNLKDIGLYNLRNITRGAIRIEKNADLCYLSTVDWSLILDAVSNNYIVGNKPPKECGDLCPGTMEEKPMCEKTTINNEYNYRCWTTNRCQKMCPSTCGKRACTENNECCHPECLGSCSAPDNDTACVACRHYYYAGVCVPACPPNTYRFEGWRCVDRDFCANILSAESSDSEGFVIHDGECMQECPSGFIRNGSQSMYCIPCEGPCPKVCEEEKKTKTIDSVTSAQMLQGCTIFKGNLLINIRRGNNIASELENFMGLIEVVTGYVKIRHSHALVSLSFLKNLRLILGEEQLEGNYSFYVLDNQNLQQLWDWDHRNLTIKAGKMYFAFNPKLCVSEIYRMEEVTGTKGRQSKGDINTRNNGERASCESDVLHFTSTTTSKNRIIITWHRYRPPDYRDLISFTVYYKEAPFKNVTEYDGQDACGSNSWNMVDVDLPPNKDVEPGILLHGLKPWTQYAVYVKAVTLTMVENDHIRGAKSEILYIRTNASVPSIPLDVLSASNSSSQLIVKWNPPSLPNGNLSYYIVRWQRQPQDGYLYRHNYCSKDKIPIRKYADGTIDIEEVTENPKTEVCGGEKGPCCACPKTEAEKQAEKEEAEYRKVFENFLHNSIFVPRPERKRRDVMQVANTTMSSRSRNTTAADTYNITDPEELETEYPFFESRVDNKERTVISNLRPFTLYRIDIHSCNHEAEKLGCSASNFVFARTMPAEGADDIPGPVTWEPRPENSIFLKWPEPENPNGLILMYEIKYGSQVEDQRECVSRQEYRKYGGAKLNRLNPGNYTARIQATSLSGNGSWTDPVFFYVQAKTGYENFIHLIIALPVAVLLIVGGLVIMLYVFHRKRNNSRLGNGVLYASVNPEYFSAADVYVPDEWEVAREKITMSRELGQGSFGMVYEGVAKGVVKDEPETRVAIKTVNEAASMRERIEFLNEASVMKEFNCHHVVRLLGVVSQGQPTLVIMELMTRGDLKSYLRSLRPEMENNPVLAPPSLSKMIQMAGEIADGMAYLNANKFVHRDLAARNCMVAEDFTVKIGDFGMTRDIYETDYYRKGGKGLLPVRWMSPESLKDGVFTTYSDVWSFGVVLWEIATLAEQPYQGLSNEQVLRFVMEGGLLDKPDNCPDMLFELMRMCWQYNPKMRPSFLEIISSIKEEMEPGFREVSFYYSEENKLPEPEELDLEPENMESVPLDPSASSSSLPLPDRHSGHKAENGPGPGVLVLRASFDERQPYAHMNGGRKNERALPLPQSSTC

Which “Solubility in 1% SDS in water” value ([1]; monohydrate) does the source give for `COc1cc(C2c3cc4c(cc3C(O)[C@H]3COC(=O)[C@@H]23)OCO4)cc(OC)c1OC` (stereo partly drawn) [picropodophyllin monohydrate, reference compound] here?
Its value is 0.2 mg/mL.

For `COc1cc([C@@H]2c3cc4c(cc3[C@H](O)[C@H]3COC(=O)[C@@H]23)OCO4)cc(OC)c1OC` [picropodophyllin], which “Inhibition of IGF-1R” value [2] is on record?
Its value is “specific and potent inhibitor”.

What does the source list for `COc1cc([C@@H]2c3cc4c(cc3[C@H](O)[C@H]3COC(=O)[C@@H]23)OCO4)cc(OC)c1OC` [polymorph B, picropodophyllin]?
TGA mass loss from ambient temperature to 150° C. [3, 9]: 0.0±0.1%; Solid form obtained from slurry of polymorphs B and C ([4]; acetone saturated with picropodophyllin, five days, ambient temperature): converted to polymorph C; Solid form obtained from slurry of polymorphs B and C ([4]; ethyl acetate saturated with picropodophyllin, five days, ambient temperature): converted to polymorph C; Solid form obtained from slurry of polymorphs B and C ([4]; mesitylene saturated with picropodophyllin, five days, ambient temperature): converted to polymorph C; Solid form obtained from slurry of polymorphs B and C ([4]; mesitylene, 70° C., overnight): converted to polymorph C; Solid form obtained from slurry of polymorphs B and C ([4]; mesitylene, 120° C., 4 hours): converted to polymorph C; Apparent Solubility assay 1 ([5]; FeSSIF pH 6.5, 37° C., assay time polymorph B 16 hours, polymorph C 1.3 hours, triplicate): 0.02551 ± 0.00051 mg/mL; Solubility increase in FeSSIF as compared to PhB 6.5 ([5]; FeSSIF pH 6.5 vs PhB 6.5): 2.2 fold; Apparent Solubility assay 1 ([5]; PhB 6.5, 37° C., assay time polymorph B 19 hours, polymorph C […], mean ± SD, triplicate): 0.01172 ± 0.00022 mg/mL; Solid-state instability (XRPD, TGA) ([6]; 3 months storage at 25° C./60% RH): does not show any sign(s) of solid-state instability; Solid-state instability (XRPD, TGA) ([6]; 3 months storage at 40° C./75% RH): does not show any sign(s) of solid-state instability; TGA mass loss from ambient temperature to 150° C. [6, 9]: 0.0±0.1%; Change in appearance ([6]; 3 months at 25° C./60% RH): no change in appearance; Change in appearance ([6]; 3 months at 40° C./75% RH): no change in appearance; Solid form by XRPD after stirring in water [7]: converted to a mixture of mainly picropodophyllin monohydrate and some picropodophyllin polymorph B; solubility at 24 h ([1]; 1% SDS in water, aqueous with cosolvent or surfactant or cyclodextrin, thermodynamic from solid): 0.7 mg/mL (≈ 1690 µM); DVS mass increase [8]: 0.2%

Which results are given for `COc1cc([C@@H]2c3cc4c(cc3[C@H](O)[C@H]3COC(=O)[C@@H]23)OCO4)cc(OC)c1OC` [polymorph C, picropodophyllin]?
TGA mass loss from ambient temperature to 150° C. [3, 10]: 0.1±0.1%; solubility ([5]; 37 °C, pH 6.5, aqueous buffer, thermodynamic from solid, Apparent Solubility Assay 1 + 2, PhB 6.5, 37° C., assays 1 and 2 combined, mean ± SD): 0.00585 ± 0.00025 mg/mL; solubility ([5]; 37 °C, pH 6.5, aqueous buffer, thermodynamic from solid, Apparent Solubility assay 1, PhB 6.5, 37° C., assay time polymorph B 19 hours, polymorph C […], mean ± SD, triplicate): 0.00588 ± 9e-05 mg/mL (≈ 14.2 µM); solubility at 50 min ([5]; 37 °C, pH 6.5, aqueous buffer, thermodynamic from solid, Apparent Solubility assay 2, PhB 6.5, 37° C., assay time 29 hours (value obtained after 50 minutes), mean ± SD, triplicate): 0.00581 ± 0.00038 mg/mL (≈ 14 µM); solubility ([5]; 37 °C, pH 6.5, fessif, thermodynamic from solid, Apparent Solubility Assay 1 + 2, FeSSIF pH 6.5, 37° C., assays 1 and 2 combined): 0.0126 ± 0.0008 mg/mL; solubility at 25 h ([5]; 37 °C, pH 6.5, fessif, thermodynamic from solid, Apparent Solubility assay 2, FeSSIF pH 6.5, 37° C., assay time 25 hours, triplicate): 0.0122 ± 0.00107 mg/mL (≈ 29.5 µM); TGA mass loss from ambient temperature to 150° C. [6, 10]: 0.1±0.1%; Solid form by XRPD after sonication ([7]; in purified water, cooled on ice, sonicated for 5 minutes): no phase change occurred; Solid form by XRPD after mortaring ([7]; mortared for 5 minutes in agate mortar): no phase change occurred; Solid form by XRPD after stirring in water [7, 10]: no phase change occurred; Solubility in 1% SDS in water [1, 10]: 0.4 mg/mL (≈ 965 µM)
